Measured values published in PMC7189608, “FaPAO5 regulates Spm/Spd levels as a signaling during strawberry fruit ripening” (Plant Direct, 2020).
pKd: −log10 of the molar value.

Molecular target: T1, FaPAO5
T1 construct: 105 kDa fusion protein
Test: isothermal titration calorimetry
Type: binding, Fragaria x ananassa
Conditions: pH 7.4, 30 °C, 200 mM NaCl, 20 mM Tris, 0.5 mM EDTA, 10 mM maltose; MBP fusion protein (10 µM in Methods, 20 µM in Results); ligand 100 µM
From the text: isothermal titration calorimetry on FaPAO5 | the binding of FaPAO5 to Spm and Spd followed a saturation kinetics curve

| pKd | Structure (SMILES) |
| --- | --- |
| 6.68 | NCCCNCCCCNCCCN [Spm] |
| 6.54 | NCCCCNCCCN [Spd] |
